Read-outs that look alike come from different tables or passages of the source.
Assays:
Strep mutans = assay: MIC (minimum inhibitory concentration) with Strep. mutans; format: cell-based; conditions: active ingredient alone, water/alcohol/propylene glycol mixture, total bacterial inhibition
Description: Hexetidine is a broad-spectrum, water-insoluble antibacterial, having the chemical formula [drawing 1] 5-amino-1,3-bis(2 ethylhexyl)-5-methyl-hexahydropyrimidine. It has been used as an antibacterial agent in antiplaque and antigingivitis oral compositions as previously discussed. However, hexetidine is a bitter-tasting chemical, thereby limiting its use to low levels in order to minimize its bitter taste, which in turn limits its therapeutic activity.
Table I gives the MIC (minimum inhibitory concentration) results with Strep. mutans.
All the active ingredients (AI) are in water/alcohol/propylene glycol mixtures.
The FIC (Fractional Inhibitory Concentration), has been calculated from the MIC data for each ratio.
A minimum concentration of 0.60 ppm hexetidine alone is needed for total bacterial inhibition, and a minimum concentration of 40 ppm of zinc++ alone is required for total bacterial inhibition; whereas a concentration of 0.12 ppm hexetidine in combination with 0.12 ppm zinc++ effects total bacterial inhibition. This increase in the antibacterial activity of the hexetidine due to the presence of the zinc++ reduces the amount necessary to produce a therapeutic effect, and this minimizes the bitter taste associated with hexetidine.

[1] = cited from earlier work
[2] = Active ingredient stability of dentifrice after aging 9 weeks at 49° C.
Description: The pH of the dentifrice can be adjusted to 5-6 with an appropriate acid such as acetic acid, citric acid, hydrochloric acid, phosphoric acid, etc., if necessary.

Zinc++
MIC (Strep mutans): 40.00 ppm
MIC (Strep mutans; listed as zinc++): 40 ppm

CCCCC(CC)CN1CN(CC(CC)CCCC)CC(C)(N)C1 (stereo not shown) [Hexetidine, 5-amino-1,3-bis(2 ethylhexyl)-5-methyl-hexahydropyrimidine]
MIC (Strep mutans; Streptococcus mutans, read-out: MIC): 0.6 µg/mL
MIC (Strep mutans): 0.60 ppm
water solubility [1]: water-insoluble
% Available After Aging ([2]; in dentifrices of Examples 1 and 2 (sodium lauryl sulfate), pH 5-6, 90720 min): 65%
% Available After Aging ([2]; in dentifrices of Examples 3 and 4 (polyoxyethylene (20) sorbitan monoisostearate), pH 5.0-6.0, 90720 min): 92%

— patent publication US4774078A, “Stable antiplaque dentifrice based on hexetidine, zinc ion and fluoride” (Colgate-Palmolive Company, priority 1986, dated 1988)
